Here are results for 90 compounds from a melting point compilation (Tetko et al.; mined from patent text by program, amines drawn as free bases though some values may be those of a salt).

Where only a bound is given, the exact number is not on record here.

In general, melting point refers to the temperature, or range, at which the solid turns liquid. As for `CNc1ccc(CO)cc1[N+](=O)[O-]`, the melting point is 126 to 127 °C.
The compound `CN(C)C=C1N=C(c2ccccc2Cl)c2cc(I)ccc2N(C)C1=O` had a melting point of 182 to 184 °C.
Turning to `O=C(Nc1ccccc1)c1ccc(OC(F)(F)F)c(Nc2cccc(C(F)(F)F)c2)c1`, the melting point was 129 to 130 °C.
In turn, `CP(=O)(NCC(=O)OCc1ccccc1)C1CC(c2ccccc2)=NO1` (stereo not given) gave a melting point of 132 to 135 °C.
The value for `COc1cc2c(c3c1OC(C)(C)C3)C(c1ccnc(-n3c(=O)cc(C)c4ccccc43)c1)=NC(C)(C)C2` was 218 to 219 °C; that for `CC(CC(C)(C)C)CP(=O)(O)C1OC(=O)c2ccccc21` (stereo not given) was 117 to 121 °C; that for `CC1CCN(Cc2ccc(C=CC(=O)Nc3ccc(-c4ccc(Cl)cc4)cc3)cc2)CC1` was 207 to 208 °C.
As for `C=CCc1ccc2oc(C(=O)OCC)c(C)c2c1O`, the melting point was 123 °C.
Compound `COc1ccc(/C=C/c2cc(OC)c(OC)c(OC)c2)cc1` came in with a melting point of 152 to 155 °C.
The value for `CCCCc1nc2cc(F)ccc2n1Cc1ccc(C(=O)O)cc1` was 202 to 204 °C; that for `COc1ccc([C@@H]2Sc3cc(Oc4ccccc4)ccc3NC(=O)[C@@H]2O)cc1` was 181 to 183 °C.
The value for `O=Cc1c(F)cccc1N1CCN(Cc2ccccc2)CC1` was 94 to 95 °C.
As to `COC(=O)c1ccc2c(=O)n(CC(C)C)c(CNC(=O)OC(C)(C)C)c(-c3ccc(C)cc3)c2c1`, the melting point was 193 to 194 °C.
Next, `N#CCc1ccc(NC(=O)C=C2CC(C(=O)O)Nc3cc(Cl)cc(Cl)c32)cc1` (racemic): 200 to 202 °C; `O=C1OC2CC3CC(C2)OC1O3`: 140 to 143 °C; `CC(C)C1C(=O)NC(c2ccc(NC(=O)CCl)cc2)c2ccccc21` (stereo not given): 269 to 270 °C.
Next, `CS(=O)(=O)c1ccc(OCCO)cc1`: 89 to 90 °C.
The value for `COc1ccc(-c2[nH]nc3c2CCc2ccccc2-3)cc1` was 161 to 163 °C; that for `Cc1oc(-c2ccccc2)nc1COc1ccc(CO)nc1` was 125 to 126 °C.
Take `COc1ccc2c(c1)c(-c1cc3c(C(=O)N4CCOCC4)ccnc3[nH]1)cn2C`: the melting point was in the range of 259 to 260 °C.
Regarding `Cc1cccc(Cl)c1S(=O)(=O)NC(=O)n1nc(Br)n(N(C)C)c1=O`, the melting point turned out to be 163 °C.
Compound `CCC1SC(=O)N(Cc2ccc(N)cc2)N=C1c1ccc(OC)c(OC)c1` (stereo not given) registered a melting point of 105 °C.
Turning to `Cc1ccc(N(c2ccc(-c3ccc(-c4ccc(N(c5ccc(C)cc5)c5ccc6c(c5)CCC6)cc4)cc3)cc2)c2ccc3c(c2)CCC3)cc1`, the melting point was in the range of 207 to 208 °C.
For `CCCCCCCCCCCCN=C=S`, the melting point lay in the range of 75 to 80 °C.
`COc1cccc(CCC(C(=O)c2ccc(O)cc2)c2ccccc2)c1` (stereo not given) displayed a melting point of 125 to 129 °C.
The compound `CCOC(=O)c1cc(-n2c(OC)nc(C(F)(F)F)cc2=O)c(F)cc1Cl` yielded a melting point of 91 to 93 °C.
Next, `CCCc1c(OCCOCCOc2ccc3ccc(OCCCC(=O)O)cc3c2C(C)=O)ccc(C(C)=O)c1O`: 71 to 75 °C.
The value for `O=C1CCC(c2c[nH]c3cc(F)ccc23)CC1` was 102 to 105 °C; that for `O=C(c1ccncc1)c1cccc(NC(=O)c2ccn3c2CSC3c2cccnc2)c1` (stereo not given) was 186 °C; that for `COC(=N)N1CCC(c2n[nH]c3cc(F)ccc23)CC1` was 162 to 164 °C.
Next, `CCCCOc1cc2c(cc1OC)C(c1ccc(OC)c(OC)c1)=NN=C(C)C2CC` (stereo not given): 147 to 150 °C.
Compound `O=C(O)c1ccc(-c2csc(-c3ccccc3)n2)cc1` had a melting point of 245 to 248 °C.
In the case of `CC(=O)NC[C@H]1CN(c2ccc(N3CCC(=CC#N)CC3)c(F)c2)C(=O)O1`, the melting point lay in the range of 159 to 160 °C.
Next, `N#CC(C#N)=C1N(CCCN2CCCCC2)CCN1C1CCN(C(=O)C2CC2)CC1`: 131 to 133 °C; `N=C(N)Nc1nc2c(s1)CCN(C(=O)c1ccc(NC(=O)c3ccccc3-c3ccccc3)cc1)c1ccccc1-2`: more than 250 °C.
The compound `Cn1nccc1COC(=O)Cc1ccccc1` came in with a melting point of 80 to 83 °C.
Consider `O=C(O)CCn1nc(-c2c(-c3ccccc3)nn3ccccc23)cc1O`, for which the melting point was 211 to 213 °C.
Next, `N#CCCN(CCC#N)CCC#N`: 59 to 61 °C; `Nc1cccc(-c2ccc(CCNCCCCCc3ccccc3)cc2)n1`: 60 to 70 °C.
Compound `CCN(CC)CCNc1cc(Sc2ccc(Cl)cc2)nc(-c2ccccc2)n1` had a melting point of 83.5 to 86 °C.
Next, `CCc1c(-c2ccc(O)cc2)c2cc(C(C)=O)c3cc(O)cc1n32`: 274 to 275 °C.
Turning to `CCC(C)(C)c1cc(-c2ccc(C=C3SC(N4CCOCC4)=NC3=O)s2)ccc1O`, the melting point was in the range of 322 to 323 °C.
The compound `CCOC(=O)/C=C/c1nc(COc2ccc(COc3nn(-c4ccccc4)cc3/C=C/P(=O)(OCC)OCC)cc2OC)c(C)o1` came in with a melting point of 130 to 131 °C.
Next, `CCCOc1cc(-c2c(C(=O)OCC)c(CCl)nc3cc(OC)c(OC)cc23)ccc1OC`: 126 to 128 °C; `CC(C)(C)OC(=O)NCC(=O)Nc1ccc(O)cc1`: 152 to 154 °C; `CC(=Cc1cccc2ccccc12)[N+](=O)[O-]`: 64 to 67 °C.
Turning to `CN1CCC(NC2c3ccccc3Oc3ccccc32)CC1`, the melting point was in the range of 96.5 to 98 °C.
Compound `CC1(C)CC(n2ccc(-c3ccc(F)cc3)c2-c2ccncc2)CC(C)(C)N1` had a melting point of 118 to 119 °C.
The value for `CCN(CC)S(=O)(=O)Oc1ccc2c(c1)CCC1C2CCC2(C)C(O)C(O)CC12` (stereo not given) was 121 to 124 °C.
Next, `NC(=O)c1cccc(C=CC(=O)O)c1`: more than 260 °C; `FC(F)(F)c1cc(Cl)nc2[nH]ncc12`: 112 °C.
The value for `CCCCc1ccc(-c2ncc(C#N)c(Cl)n2)cc1` was 107 °C.
Compound `Cc1nc(O)c(Br)cc1Br` gave a melting point of more than 225 °C.
The value for `CC(C)=NNc1cc2c(nn1)CCN(C(=O)c1ccc(Cl)cc1)C2` was 221 to 223 °C.
`CC1(C)CCC(C)(C)c2nc3c(nc21)CCc1c(-c2ccc(C(=O)O)cc2)nn(Cc2cccnc2)c1-3` had a melting point of 250 to 252 °C.
Consider `COC(=O)c1ccc(OC)cc1S(=O)(=O)NC(=O)Nc1nc(C)nc(OC)n1`, for which the melting point fell in the range of 183 to 186 °C.
The compound `CC(C)C(=O)Oc1ccc2c(c1)CCC1C2CCC2(C)C1CC(O[Si](C)(C)C(C)(C)C)C2OC(=O)C(C)C` (stereo not given) returned a melting point of 114 °C.
`CCNC(=O)ON(C(=O)CC)C(=O)NCC` yielded a melting point of 104 to 106 °C.
The compound `Cc1ccc(S(=O)(=O)N(NC=O)c2ccc(NC(=S)Oc3ccccc3)cc2)cc1` had a melting point of 195 to 196 °C.
Consider `Cc1cc(C2(O)C(=O)c3ccccc3C2=O)c(C)cc1O`, for which the melting point was in the range of 228 to 230 °C.
Consider `CCC(=O)N(C(=O)CC)c1cc(-c2c(-c3cccc(C)c3)nc3cccnn23)ccn1`, for which the melting point fell in the range of 210 to 211 °C.
For the compound `CCOC(=O)c1cn(C2CC2)c2c(F)c(N3CC[C@H](N)C3)c(F)cc2c1=O`, the melting point was 227 to 228 °C.
The value for `CC(C)(CO)Nc1ccc2c(c1)C(=O)c1ccccc1C2=O` was 218 to 220 °C; that for `N/C(=C1/Sc2ccccc2C1=O)c1ccccc1Cl` was 167 to 168 °C; that for `Cc1cc(C(=O)/C=C/C(=O)O)c(C)o1` was 144 to 147 °C.
Consider `Cc1cc(C)cc(Cc2c(C(C)C)c(=O)[nH]c(=O)n2COCCCN(OC(=O)Oc2ccccc2)C(=O)Oc2ccccc2)c1`, for which the melting point is 59 to 61 °C.
On to `O=C(O)CCCCCc1nn(-c2ccc(Cl)cc2)c2c1CCC2`, for which the melting point lay within 99 to 101 °C.
Next, `N[C@H]1C=C(C(=O)O)OC1`: 193 to 195 °C.
`CC(C)(C)OC(=O)Nc1ccc(-c2ccccc2)cc1NC(=O)CC(=O)c1sccc1Cl`: the melting point came out at 165 °C.
`COc1cc2nc(N3CCN(C(=O)C45CC6CC(CC(C6)C4)C5)CC3)nc(N)c2cc1OC`: the melting point lay in the range of 237 to 240 °C.
As for `NC1CCCCCCCCCCC(=O)N1` (single isomer, unassigned; (-)), the melting point is 128 to 130 °C.
Next, `C=CCOc1cccc(N2C(=O)C3=C(CCCC3)C2=O)c1`: 88 to 90 °C; `C#CCN1C(=O)C2CC3CC(C2)CC1C3`: 168 to 170 °C.
Next, `Nc1nc2ccc(S(=O)(=O)n3c(CCC(=O)O)cc4cc(Cl)ccc43)cc2s1`: 250 to 255 °C; `O=C(OC1CCCC1)c1ccc([N+](=O)[O-])c(OC2CCCC2)c1`: 45.5 to 46.5 °C; `CCOC(=O)C1=C(C)NC(C)=C(C(=O)OC)C1c1cccc(N)c1` (single isomer, unassigned; (-)): 173 to 175 °C.
The compound `COC(=O)CC(c1ccc(OC)c(OC)c1)N1C(=O)C2CCCCC2C1=O` (stereo not given) returned a melting point of 92.5 to 95 °C.
The value for `N#CCCc1coc2ccc(Br)cc12` was 56 to 58 °C; that for `CN(C)CCN1C(=O)c2ccc3[nH]c4ccc(O)cc4c3c2C1=O` was more than 260 °C; that for `Cc1nn(-c2ccccn2)c2ncc(C(=O)c3ccccc3)c(O)c12` was 224 to 226 °C.
With `CS(=O)(=O)c1ccc(-c2cc(C(F)F)nn2-c2cccc(C(F)(F)F)c2)cc1F`, the melting point fell in the range of 110 to 111 °C.
The compound `Brc1ccc(C=Cc2cccc3ccccc23)cc1` gave a melting point of 106 °C.
The value for `Cc1c(C#N)c(=O)oc2ccc(Br)cc12` was 187 to 192 °C; that for `COc1ccc(C(=O)Nc2ccccc2)cc1NCc1cccc(F)c1F` was 134 to 135 °C; that for `O=C(O)[C@H](CC(=NO)c1ccc2oc3ccccc3c2c1)NC(=O)C(F)(F)F` was 128 to 130 °C.
The value for `COc1ccc2cnc(N)nc2c1C1CCCC1` was 181 to 183 °C; that for `Cc1ccc(C(=O)CBr)cc1S(N)(=O)=O` was 146 to 148 °C; that for `CCCCCCCC(=O)c1ccc(CCI)cc1` was 36.5 °C.
In the case of `COC1=CC(Cl)(OC)NC(C(O)CC(=O)Nc2ccccc2)=N1` (stereo not given), the melting point is 121 to 123 °C.
Next, `COC1=CC(C)(O)C(CCC(=O)O)C=C1` (stereo not given): 142 °C.
